Assays:
Type in all cases: cell-based, Human
[1] = test system: MBA-MB-231 (breast cancer); assay: Test for inhibition of tumor cell growth (SRB), MBA-MB-231; details: 48 hours, SRB staining; for GI50: Homo sapiens
Protocol: (§1) Human tumor cell lines, PC-3 (prostate cancer, ATCC, USA), MBA-MB-231 (breast cancer, ATCC, USA), ACHN (kidney cancer, ATCC, USA), and NUGC-3 (gastric cancer, ATCC, USA) were cultured in RPMI 1640 media containing 10% fetal bovine serum (FBS).
(§2) In order to measure anticancer activity, a suitable concentration of cells in RPMI 1640 media containing 5% fetal bovine serum (about 5×10^4 cells/□) was aliquotted in 96-well plates, and cultured in 5% CO2 at 37° C. On day one after aliquoting the cells, before the cells were treated with the compounds, in order to determine their concentration, 50[…] of 50% trichloroacetic acid was added to each well of time zero (T0) plate, and cells were fixed to determine zero point. The cells treated with the compounds were fixed on each well having 50[…] of 50% trichloroacetic acid after 48 hours. The final concentrations of the test compounds were 0.01, 0.03, 0.1, 0.3, and 1[…]/□. The fixed plate was washed with water and dried, and then 100[…] of 0.4% sulphorhodamine B (SRB) dissolved in 0.1% acetic acid was added to the each well to stain the cells. The plate was allowed to stand for 30 minutes, and then washed with 0.1% acetic acid. Then, the plate was dried at room temperature, and treated with 10 mM tris base (pH 10.5) to dissolve staining reagent. An absorbance measured at 540 nm was calculated as a percentage of the control group, and then the concentration of the compound that inhibited tumor cell growth (GI50(□/□)) by 50% was determined.

PC-3 (prostate cancer) = assay: Test for inhibition of tumor cell growth (SRB), PC-3; details: 48 hours, SRB staining; for GI50: Homo sapiens, read-out: GI50 PC-3 (prostate ancer)
Protocol: as §1, §2

ACHN (kidney cancer) = assay: Test for inhibition of tumor cell growth (SRB), ACHN; details: 48 hours, SRB staining; for GI50: Homo sapiens, ACHN
Protocol: as §1, §2

NUGC-3 (gastric cancer) = assay: Test for inhibition of tumor cell growth (SRB), NUGC-3; details: 48 hours, SRB staining; for GI50: Homo sapiens, NUGC-3
Protocol: as §1, §2

Row | Compound | GI50 [1] | GI50 (PC-3 (prostate cancer)) | GI50 (ACHN (kidney cancer)) | GI50 (NUGC-3 (gastric cancer)) | GI50 MBA-MB-231 (breast cancer) [1] | GI50 PC-3 (prostate ancer) (PC-3 (prostate cancer)) | GI50 ACHN (kidney cancer) (ACHN (kidney cancer)) | GI50 NUGC-3 (gastric cancer) (NUGC-3 (gastric cancer))
1 | CCCCCCCC(=O)N1CC[N+](CC)(Cc2ccccc2)CC1.[Br-] [Example 7, 1-benzyl-1-ethyl-4-octanoyl-piperazin-1-ium bromide] | > 10 µg/mL | > 10 µg/mL | > 10 µg/mL | > 10 µg/mL | – | – | – | –
2 | CCCCCCCCCCCCCC(=O)N1CC[N+](CC)(Cc2cccc(C)c2)CC1 [Example 52, 1-ethyl-1-(3-methylbenzyl)-4-tetradecanoylpiperazin-1-ium bromide] | 1.6 µg/mL | 0.51 µg/mL | 2.08 µg/mL | 0.88 µg/mL | – | – | – | –
3 | C=CC[N+]1(CC)CCN(C(=O)CCCCCCCCCCCCCCCCC)CC1 [Example 29, 1-allyl-1-ethyl-4-octadecanoyl-piperazin-1-ium bromide] | 2.51 µg/mL | 0.84 µg/mL | 2.43 µg/mL | 1.37 µg/mL | – | – | – | –
4 | CCCCCCCCCC(=O)N1CC[N+](CC)(Cc2ccccc2)CC1 [Example 10, 1-benzyl-4-decanoyl-1-ethyl-piperazin-1-ium bromide] | > 10 µg/mL | > 10 µg/mL | > 10 µg/mL | > 10 µg/mL | – | – | – | –
5 | CCCCCCCC(=O)N1CC[N+](C)(CC)CC1.[I-] [Example 6, 1-ethyl-1-methyl-4-octanoyl-piperazin-1-ium iodide] | > 10 µg/mL | > 10 µg/mL | > 10 µg/mL | > 10 µg/mL | – | – | – | –
6 | C=CC[N+]1(C)CCN(C(=O)CCCCCCC)CC1.[Br-] [Example 4, 1-allyl-1-methyl-4-octanoyl-piperazin-1-ium bromide] | > 10 µg/mL | > 10 µg/mL | > 10 µg/mL | > 10 µg/mL | – | – | – | –
7 | 1-allyl-1-methyl-4-(tetradecane-1-sulfonyppiperazin-1-ium bromide [Example 69] | – | – | – | – | 1.16 µg/mL | 0.68 µg/mL | 0.59 µg/mL | 0.59 µg/mL
8 | C=CC[N+]1(CC)CCN(C(=O)CCCCCCCCC)CC1 [Example 11, 1-allyl-4-decanoyl-1-ethylpiperazin-1-ium bromide] | > 10 µg/mL | 3.07 µg/mL | > 10 µg/mL | > 10 µg/mL | – | – | – | –
9 | CCCCCCCCCCS(=O)(=O)N1CC[N+](CC)(Cc2ccccc2)CC1 [Example 79, 1-benzyl-4-(decane-1-sulfonyl)-1-ethyl-piperazin-1-ium bromide] | > 10 µg/mL | 0.85 µg/mL | 4.41 µg/mL | 1.24 µg/mL | – | – | – | –
10 | C=CC[N+]1(CC)CCN(S(=O)(=O)CCCCCCCCCCCCCC)CC1 [Example 67, 1-allyl-1-ethyl-4-(tetradecane-1-sulfonyl)piperazin-1-ium bromide] | 1.05 µg/mL | 0.87 µg/mL | 0.51 µg/mL | 0.6 µg/mL | – | – | – | –
11 | C=CC[N+]1(C)CCN(S(=O)(=O)CCCCCCCCCCCCCCCCCC)CC1 [Example 74, 1-allyl-1-methyl-4-(octadecane-1-sulfonyl)piperazin-1-ium bromide] | 1.72 µg/mL | 1 µg/mL | 1.25 µg/mL | 0.85 µg/mL | – | – | – | –
12 | C=CC[N+]1(C)CCN(S(=O)(=O)CCCCCCCC)CC1 [Example 61, 1-allyl-1-methyl-4-(octane-1-sulfonyl)piperazin-1-ium bromide] | > 10 µg/mL | > 10 µg/mL | > 10 µg/mL | > 10 µg/mL | – | – | – | –
13 | C=CCCCCCCCCC(=O)N1CC[N+](C)(C)CC1 [Example 45, 1,1-dimethyl-4-undec-10-enoyl-piperazin-1-ium iodide] | > 10 µg/mL | 2.02 µg/mL | > 10 µg/mL | > 10 µg/mL | – | – | – | –
14 | CCCCCCCCCS(=O)(=O)N1CC[N+](CC)(Cc2ccccc2)CC1 [Example 100, 1-benzyl-1-ethyl-4-(nonane-1-sulfonyl)piperazin-1-ium bromide] | > 10 µg/mL | 4.08 µg/mL | > 10 µg/mL | 1.73 µg/mL | – | – | – | –
15 | CCCCCCCCCCCCCCCCCC(=O)N1CCC[N+](C)(C)CC1 [Example 129, 1,1-dimethyl-4-stearoyl-1,4-diazepan-1-ium iodide] | 0.67 µg/mL | 0.24 µg/mL | 0.57 µg/mL | 0.26 µg/mL | – | – | – | –
16 | C=CCCCCCCCCC(=O)N1CC[N+](C)(Cc2ccccc2)CC1 [Example 44, 1-benzyl-1-methyl-4-undec-10-enoyl-piperazin-1-ium bromide] | > 10 µg/mL | 0.41 µg/mL | > 10 µg/mL | > 10 µg/mL | – | – | – | –

Row | Compound | GI50 [1] | GI50 (PC-3 (prostate cancer)) | GI50 (ACHN (kidney cancer)) | GI50 (NUGC-3 (gastric cancer)) | GI50 MBA-MB-231 (breast cancer) [1] | GI50 PC-3 (prostate ancer) (PC-3 (prostate cancer)) | GI50 ACHN (kidney cancer) (ACHN (kidney cancer)) | GI50 NUGC-3 (gastric cancer) (NUGC-3 (gastric cancer))
17 | CCCCCCCCCCCCCCCCCCCCCCCC(=O)N1CC[N+](C)(CC)CC1 [Example 42, 1-ethyl-1-methyl-4-tetracosanoylpiperazin-1-ium iodide] | > 10 µg/mL | 3.77 µg/mL | > 10 µg/mL | > 10 µg/mL | – | – | – | –
18 | CCCCCCCCCCCCCCCCCCS(=O)(=O)N1CC[N+](CC)(Cc2ccccc2)CC1 [Example 73, 1-benzyl-1-ethyl-4-(octadecane-1-sulfonyl)piperazin-1-ium bromide] | 1.75 µg/mL | 0.8 µg/mL | 1.87 µg/mL | 0.85 µg/mL | – | – | – | –
19 | C=CC[N+]1(CC)CCN(C(=O)CCCCCCCCCCCCC)CC1 [Example 16, 1-allyl-1-ethyl-4-tetradecanoyl-piperazin-1-ium bromide] | 2.49 µg/mL | 0.41 µg/mL | 4.26 µg/mL | 0.76 µg/mL | – | – | – | –
20 | CCCCCCCCCCS(=O)(=O)N1CC[N+](C)(C)CC1 [Example 75, 4-(decane-1-sulfonyl)-1,1-dimethyl-piperazin-1-ium iodide] | > 10 µg/mL | 1.84 µg/mL | 4.45 µg/mL | 3.29 µg/mL | – | – | – | –
21 | CCCCCCCCCCCCCCS(=O)(=O)N1CC[N+](CC)(CC)CC1 [Example 94, 1,1-diethyl-4-(tetradecane-1-sulfonyl)piperazin-1-ium iodide] | 0.46 µg/mL | 0.53 µg/mL | 0.31 µg/mL | 0.37 µg/mL | – | – | – | –
22 | CCCCCCCCCCCCCCCCCCCCCC(=O)N1CC[N+](C)(Cc2ccccc2)CC1 [Example 35, 1-benzyl-4-docosanoyl-1-methylpiperazin-1-ium bromide] | 1.98 µg/mL | 1.24 µg/mL | 4.74 µg/mL | 1.9 µg/mL | – | – | – | –
23 | 1-(4-fluorobenzyl)-1-methyl-4-(octane-1-sulfonyppiperazin-1-ium bromide [Example 63] | – | – | – | – | >10 µg/mL | >10 µg/mL | >10 µg/mL | >10 µg/mL
24 | CCCCCCCCCCCCCCCCCCCCCC(=O)N1CC[N+](C)(C)CC1 [Example 1, 4-docosanoyl-1,1-dimethylpiperazin-1-ium iodide] | 3.51 µg/mL | 0.99 µg/mL | 2.39 µg/mL | 1.15 µg/mL | – | – | – | –
25 | CCCCCCCCCS(=O)(=O)N1CC[N+](C)(Cc2ccc(F)cc2)CC1 [Example 104, 1-(4-fluorobenzyl)-1-methyl-4-(nonane-1-sulfonyl)piperazin-1-ium bromide] | > 10 µg/mL | 3.45 µg/mL | > 10 µg/mL | > 10 µg/mL | – | – | – | –
26 | CCCCCCCCCCCCCCS(=O)(=O)N1CC[N+](C)(Cc2ccccc2)CC1 [Example 70, 1-benzyl-1-methyl-4-(tetradecane-1-sulfonyl)piperazin-1-ium bromide] | 0.87 µg/mL | 0.49 µg/mL | 1.11 µg/mL | 0.53 µg/mL | – | – | – | –
27 | CCCCCCCCCCCC(=O)N1CC[N+](CC)(Cc2cccc(F)c2)CC1.[Br-] [Example 54] | – | – | – | – | 4.71 µg/mL | 0.53 µg/mL | 3.78 µg/mL | 1.61 µg/mL
28 | CCCCCCCCCCCCCCCC(=O)N1CCC[N+](C)(CC)CC1 (centres unmarked) [Example 116, 1-ethyl-1-methyl-4-palmitoyl-1,4-diazepan-1-ium iodide] | 0.59 µg/mL | 0.36 µg/mL | 0.29 µg/mL | 0.25 µg/mL | – | – | – | –
29 | CCCCCCCC(=O)N1CC[N+](C)(Cc2ccc(OC)cc2)CC1.[Cl-] [Example 5, 1-(4-methoxy-benzyl)-1-methyl-4-octanoyl-piperazin-1-ium chloride] | > 10 µg/mL | > 10 µg/mL | > 10 µg/mL | > 10 µg/mL | – | – | – | –
30 | CCCCCCCCCCCS(=O)(=O)N1CC[N+](CC)(CC)CC1 [Example 92, 1,1-diethyl-4-(undecane-1-sulfonyl)piperazin-1-ium iodide] | 1.62 µg/mL | 0.45 µg/mL | 0.81 µg/mL | 0.21 µg/mL | – | – | – | –
31 | CCCCCCCCCCCCCCCCCCS(=O)(=O)N1CC[N+](C)(Cc2ccccc2)CC1 [Example 115, 1-benzyl-1-methyl-4-(octadecane-1-sulfonyl)piperazin-1-ium bromide] | 0.91 µg/mL | 0.48 µg/mL | 2.01 µg/mL | 1.07 µg/mL | – | – | – | –
32 | CCCCCCCCCCS(=O)(=O)N1CC[N+](C)(Cc2ccccc2)CC1 [Example 76, 1-benzyl-4-(decane-1-sulfonyl)-1-methyl-piperazin-1-ium bromide] | 4.02 µg/mL | 0.54 µg/mL | 3.5 µg/mL | 0.99 µg/mL | – | – | – | –

Reference: patent US20100144708A1, “HETEROCYCLIC COMPOUNDS CONTAINING NITROGEN ATOMS OR PHARMACEUTICALLY ACCEPTABLE SALTS THEREOF, PROCESS FOR THE PREPARATION THEREOF AND PHARMACEUTICAL COMPOSITION COMPRISING THE SAME FOR TREATMENT OF CANCER” (Korea Research Instititute of Bioscience and Biotechnology, priority 2006, published 2010)
